For `CCOC(=O)c1cc2n(c1)CN(C(=O)OCC)c1ccc(Br)cc1-2`, the melting point was 161 to 163 °C.
Consider `O=C1N(Cc2ccc(C(F)(F)F)o2)c2c(Cl)cccc2C12COc1cc3c(cc12)CCO3` (configuration not stated), for which the melting point was 210 to 211 °C.
For `COc1ccc2c(c1)Cc1cc(=O)[nH]nc1-2`, the melting point is 280 to 284 °C.
Compound `N#Cc1c(Cl)c(Cl)c(Oc2ccccc2)c(Cl)c1C#N` returned a melting point of 147 to 150 °C.
As for `O=P(O)(O)CCCCc1ccccc1`, the melting point lay within 88 to 90 °C.
The result for `CC1(C)CC(=O)c2c(Sc3ccccc3)sc(-c3cc[nH]n3)c2C1` reads 231 to 234 °C.
With `Cc1c(C(F)(F)F)cnn(-c2cc(OCC3CC3)c(Cl)cc2F)c1=O`, the melting point stood at 82.3 °C.
The result for `CCCCc1nc2c(OC)ccc(CCN(C)C)c2[nH]1` reads 116 to 122 °C; that for `COC(=O)C(C(=O)Nc1ccc(F)cc1)=C1SCS1`, 141 to 142 °C.
Compound `COc1cc2c(Nc3ccc(Cl)cc3F)ncnc2cc1OCc1ccnc(C)c1` gave a melting point of 221 to 224 °C.
Take `c1ccc2c(c1)c1ccccc1c1cc(-c3ccc4c5ccccc5c5ccccc5c4c3)ccc21`: the melting point amounted to 356 °C.
Take `CN(C)C1(c2ccccc2)CCC(CC(=O)N2CCC(c3c[nH]c4ccccc34)C2)CC1` (configuration not stated): the melting point was 98 to 100 °C.
`COc1ccc2ncc(F)cc2c1` came in with a melting point of 51 to 53 °C.
The result for `CCOC(=O)c1cnc2c(OC)nc(OC)cc2c1Cl` reads 200 to 210 °C.
The result for `N#Cc1cc(F)c(-n2ncc(=O)[nH]c2=O)cc1F` reads above 250 °C; that for `O=C(COc1cc(C(=O)N2CCOCC2)ccc1[N+](=O)[O-])c1ccccc1`, 172 to 173 °C; that for `CCn1ccc(Nc2cc(Cl)nn(C)c2=O)n1`, 173 to 175 °C.
Consider `COC(=O)C[C@H](O)C[C@@H](O)C=Cc1c(-c2ccc(F)cc2)c(-c2ccc(F)cc2)c(C(=O)OCc2ccccc2)n1C(C)C`, for which the melting point was 105 to 107 °C.
`O=C(Cc1cccnc1)N1CCC(=C2c3ccc(Cl)cc3CCc3c(Cl)ccnc32)CC1` showed a melting point of 59.8 to 63.5 °C.
For `COc1ccc(C2=C(C=O)CCc3cc(OC)ccc32)cc1`, the melting point lay within 104 to 105 °C.
As to `COC(=O)CCc1ccc(OCC(C)NCC(O)c2ccccc2)cc1` (configuration not stated), the melting point lay within 103 to 104 °C.
Then `O=C1CCC(CCN2CCN(c3cc(C(F)(F)F)ccc3F)CC2)CC1`, with 75 to 76 °C.
On to `O=C(NC(c1ccccc1)c1ccccc1)N1CCC(C(=O)O)(c2ccccc2)CC1`, for which the melting point came to 208 °C.
Consider `Cn1nc2c(N)nc3ccccc3c2c1CC1(F)CCN(S(C)(=O)=O)CC1`, for which the melting point is 283 to 285 °C.
Then `CCOC(=O)C1CN(C)c2nc(Cl)ncc2C1=O` (configuration not stated), with 175 °C.
The compound `O=C(Cl)c1cc2[nH]c3cc(Cl)ccc3c2o1` yielded a melting point of 232 to 233 °C.
The compound `CC(=O)NC(C)Cc1cc2c(cc1CCl)OCO2` (configuration not stated) showed a melting point of 132 to 133 °C.
`CC(C)NOC(=O)c1n[nH]c2c(=O)[nH]c3cc(Cl)ccc3c(=O)c12` showed a melting point of 224 °C.
In turn, `CCCCc1nn2c(c1Cc1ccc(-c3ccccc3)c(C(=O)O)c1)CCCC2` yielded a melting point of 162 °C.
As for `[N-]=[N+]=NCC1OC(n2cc(C=CBr)c(=O)[nH]c2=O)CC1Cl` (configuration not stated), the melting point lay within 58 to 60 °C.
With `COc1ccc2cc(Br)sc2c1`, the melting point was 62 °C.
The result for `CN(CCOc1cn(-c2ccc(F)cc2)c2cc(Cl)ccc12)CCN1CCNC1=O` reads 100 to 102 °C.
In turn, `CCOC(=O)CNC(=O)C(C)(C)c1ccc(C2=NC(C)(C)Cc3cc(OC)c4c(c32)CC(C)(C)O4)cc1` showed a melting point of 133 to 138 °C.
With `CCOP(=O)(CNc1cc(Oc2ccc(C(F)(F)F)cc2Cl)ccc1[N+](=O)[O-])OCC`, the melting point was 78 to 79 °C.
As to `CC(=O)Oc1nsnc1-c1c(Cl)cccc1Cl`, the melting point was in the range of 56 to 59 °C.
Compound `COc1cc(Cl)nnc1NS(=O)(=O)c1cccc(Cl)c1Cl` showed a melting point of 226 to 227 °C.
The result for `O=C1C[C@@H]2[C@@H](/C=C/C(=O)C3CCCCC3)[C@H](OC(=O)c3ccccc3)C[C@@H]2O1` reads 151 to 153 °C; that for `C=CCN(C(=O)Nc1cc(C)c(S(=O)(=O)C[N+](=O)[O-])c(C)c1)c1ccccc1`, 164 to 165 °C.
As for `C1=Cc2ccc3c(c2CC1)=C1CC=c2ccccc2=C1N=3`, the melting point stood at 218 °C.
`CC(=O)N(C(=NC1CCCCC1)ON=C(C)C)C1CCCCC1` gave a melting point of 74 to 78 °C.
Then `O=S(=O)(Nc1ccc2c(-c3ccccc3Cl)n[nH]c2c1)c1cccc(Cl)c1`, with 187 to 189 °C; and `Cn1nnnc1SCCCCSc1ccccn1`, with 49 to 51.5 °C.
As to `CC(C)(Oc1ccc(CNc2ccc(Cl)cc2)cc1)C(=O)O`, the melting point fell in the range of 155 to 158 °C.
`CCOCCn1cc(C2CCN(CCOc3ccc(C)cc3C(=O)O)CC2)c2cc(OC)ccc21` registered a melting point of 144 to 146 °C.
Regarding `COc1ccc(-c2cc(C(=O)O)nnc2-c2ccc(OC)cc2)cc1`, the melting point was in the range of 157 to 158 °C.
Compound `c1ccc2c(c1)CCc1c-2noc1N1CCN(Cc2c[nH]c3ncccc23)CC1` gave a melting point of 248 to 250 °C.
`CCOC(=O)NC(=O)C(C#N)=CNc1ccc(Cl)cc1` had a melting point of 177 to 183 °C.
The result for `Cc1cc(C)n2nc(S(=O)(=O)Nc3c(Cl)cccc3Cl)c(C#N)c2n1` reads 280 to 285 °C; that for `COc1cc2c(cc1OC)C1=C(C#N)SCCC(=O)N1CC2`, 192 to 194 °C; that for `O=C1c2ccccc2C(=O)N1CC(=O)N1c2ccccc2N(Cc2ccc3ccccc3n2)C(=O)[C@H]2CCC[C@H]21` (relative stereo), 258 to 260 °C.
Consider `CCCc1nc2ccnn2c(OC)c1Cc1ccc(-c2ccccc2C#N)cc1`, for which the melting point was 110 °C.
Then `CCOC(=O)C(Br)C(=O)Nc1ccccc1` (racemic), with 90 °C; and `CNC(=O)[C@@H]1CCC[C@@H]1Nc1nc(Nc2cc3c(cc2OC)CCN(CC(=O)N(C)C)CC3)ncc1Cl` (relative stereo), with 240 °C.
In turn, `CCCn1c(=O)c2nc([C@@H]3CCC[C@H]3c3ccccc3)[nH]c2n(CCC)c1=O` (relative stereo) displayed a melting point of 152 to 153 °C.
For the compound `CCc1cccc(CC)c1NCc1n[nH]c(=S)n1C`, the melting point was 117 to 121 °C.
Then `COC1=C(OC)C(=O)C2=C(CC(CCCCOc3ccc(C(=O)N4CCC(c5ccccc5)CC4)cc3)C2)C1=O`, with 90 to 94 °C; and `CSC1C(=O)Nc2c(Oc3c(Cl)cccc3Cl)cccc21` (configuration not stated), with above 230 °C.
For the compound `Cc1ccccc1NS(=O)(=O)c1cc(S(=O)(=O)Nc2ccccc2C)c2ccccc2c1O`, the melting point was 220 to 222 °C.
`CCOC(=O)C(Cc1cccc(OCC(F)(F)F)c1)C(=O)c1ccc(F)cc1` (configuration not stated) showed a melting point of 48 to 49 °C.
The compound `CCc1cccc(-c2c(-c3ccc4nn(C)cc4c3)nsc2NC(=O)[C@@H]2C[C@H]2C)n1` gave a melting point of 159 °C.
Then `O=C(Nc1ccccc1C(F)(F)F)c1c(O)c2ccccc2oc1=O`, with 157 to 159 °C; and `O=C1CCCN1C1=CC(CF)(CF)Oc2ccc(C(F)(F)F)cc21`, with 125 to 127 °C.

Values taken from a melting point compilation (Tetko et al.; mined from patent text by program, amines drawn as free bases though some values may be those of a salt).
